# ChEMBL document CHEMBL1148059, “Isolation and structure elucidation of new nitrile and mustard oil glycosides from Moringa oleifera and their effect on blood pressure” (1994)
# Active and inactive are the calls of the source. No cut-off for these calls is given here.
# Tests used:
# Rattus norvegicus [1] = test: Hypotensive activity against normotensive anesthetized Wistar rat assessed as reduction in mean arterial blood pressure at 3 ug/kg, iv; assay type: functional; design: scale not given: the % may be the effect or the level left
# Rattus norvegicus [2] = test: Hypotensive activity against normotensive anesthetized Wistar rat assessed as reduction in mean arterial blood pressure at 3 mg/kg, iv; design: scale not given: the % may be the effect or the level left
# Rattus norvegicus [3] = test: Hypotensive activity against normotensive anesthetized Wistar rat assessed as reduction in mean arterial blood pressure up to 5 mg/kg, iv
# Rattus norvegicus [4] = test: Hypotensive activity against normotensive anesthetized Wistar rat assessed as reduction in mean arterial blood pressure up to 5 ug/kg, iv; assay type: functional, organism-based
# Rattus norvegicus [5] = test: Hypotensive activity against normotensive anesthetized Wistar rat assessed as reduction in mean arterial blood pressure at 1 ug/kg, iv; assay type: functional; design: scale not given: the % may be the effect or the level left
smiles,measurement,setting,value
CCOC(=S)NCc1ccc(O[C@@H]2O[C@@H](C)[C@H](OC(C)=O)[C@@H](O)[C@H]2O)cc1 [listing 1 of 3 here],Activity,Rattus norvegicus [1],40.33%
CC(=O)O[C@@H]1[C@@H](O)[C@@H](O)[C@H](Oc2ccc(CN=C=S)cc2)O[C@H]1C,Activity,Rattus norvegicus [2],34.91%
same,Activity,Rattus norvegicus [3],Active
C[C@@H]1O[C@@H](Oc2ccc(CC#N)cc2)[C@H](O)[C@H](O)[C@H]1O,Activity,Rattus norvegicus [3],inactive
CCOC(=S)NCc1ccc(O[C@@H]2O[C@@H](C)[C@H](OC(C)=O)[C@@H](O)[C@H]2O)cc1 [listing 2 of 3 here],Activity,Rattus norvegicus [1],37.51%
CC(=O)O[C@@H]1[C@@H](O)[C@@H](O)[C@H](Oc2ccc(CC#N)cc2)O[C@H]1C,Activity,Rattus norvegicus [3],inactive
CCOC(=S)NCc1ccc(O[C@@H]2O[C@@H](C)[C@H](OC(C)=O)[C@@H](O)[C@H]2O)cc1 [listing 3 of 3 here],Activity,Rattus norvegicus [4],Active
CC(=O)OCC[N+](C)(C)C [ACETYLCHOLINE],Activity,Rattus norvegicus [5],59.5%
